≈ marks a conversion by molar mass, not a printed value.
Key:
[1] = test system: Salmonella cholerasuis; test: In vivo protection of mice against a lethal challenge of Salmonella cholerasuis; settings: at 25 mg./Kg., multiple dosing
Method: The compounds of formula (I) also show antibacterial activity in vivo. In determining such activity, the test compound is administered to mice which have been infected by intraperitoneal injection of a lethal inoculum of pathogenic bacteria. The test compound is administered using a multiple dosing regimen, and using either the oral (PO) or the subcutaneous (SC) route. The inoculum of bacteria varies from one to about ten times the amount needed to kill 100% of the mice, under the conditions of the test. At the end of the test, the activity of a compound is assessed by counting the number of survivors among the treated animals. Results are also given in Table I, wherein the ability of the compound to protect mice against a lethal challenge of Salmonella cholerasuis is presented.

[2] = test system: Strep. pyogenes; test: In vitro antibacterial activity, two-fold serial dilution in Brain-Heart Infusion broth (MIC); format: cell-based; settings: Streptococcus pyogenes, anaerobic, overnight
Method: (§1) The broth is inoculated with bacteria, and with the test compound of formula (I), and then it is incubated overnight under anaerobic conditions. On the next day, the test is read visually. The minimum inhibitory concentration (MIC) of test compound is the lowest concentration which prevents turbidity, i.e., which prevents growth of the microoganism.

[3] = test system: Staph. aureus; test: as above; format: cell-based; settings: Staphylococcus aureus, anaerobic, overnight
Method: as §1

[4] = test system: Pasteurella multocida; test: as above; format: cell-based; settings: anaerobic, overnight
Method: as §1

[5] = test system: E. Coli; test: as above; format: cell-based; settings: Escherichia coli, anaerobic, overnight
Method: as §1

[6] = test system: Salmonella cholerasuis; test: as above; format: cell-based; settings: anaerobic, overnight
Method: as §1

SMILES: Cc1ccc(S(=O)(=O)NN=Cc2c[n+]([O-])c3ccccc3[n+]2[O-])cc1 [N → O, H, H, 4-CH3 C6 H4, 1,4-Dioxoquinoxaline-2-carboxaldehyde p-Toluenesulfonylhydrazone]
- % Survivors vs. Sal. Cholarasuis, PO [1]: 30%
- % Survivors vs. Sal. Cholarasuis, SC [1]: 100%
- MIC [2]: 12.5 µg/mL (≈ 34.9 µM)
- MIC [3]: 25 µg/mL (≈ 69.8 µM)
- MIC [4]: 3.12 µg/mL (≈ 8.72 µM)
- MIC [5]: 1.56 µg/mL (≈ 4.35 µM)
- MIC [6]: 6.25 µg/mL (≈ 17.4 µM)

SMILES: COc1ccc(S(=O)(=O)NN=Cc2c[n+]([O-])c3ccccc3n2)cc1 [N, H, H, 4-CH3 OC6 H4, 4-Oxoquinoxaline-2-carboxaldehyde p-Methoxybenzenesulfonylhydrazone]
- MIC [2]: 6.25 µg/mL (≈ 17.4 µM)
- MIC [3]: 12.5 µg/mL (≈ 34.9 µM)
- MIC [4]: 1.56 µg/mL (≈ 4.35 µM)
- MIC [5]: 3.12 µg/mL (≈ 8.72 µM)
- MIC [6]: 6.25 µg/mL (≈ 17.4 µM)

SMILES: CS(=O)(=O)NN=Cc1c[n+]([O-])c2ccccc2[n+]1[O-] [N → O, H, H, CH3]
- % Survivors vs. Sal. Cholarasuis, PO [1]: 10%
- % Survivors vs. Sal. Cholarasuis, SC [1]: 60%
- MIC [2]: 12.5 µg/mL (≈ 44.3 µM)
- MIC [3]: 25 µg/mL (≈ 88.6 µM)
- MIC [4]: 12.5 µg/mL (≈ 44.3 µM)
- MIC [5]: 3.12 µg/mL (≈ 11.1 µM)
- MIC [6]: 6.25 µg/mL (≈ 22.1 µM)

SMILES: O=S(=O)(NN=Cc1c[n+]([O-])c2ccccc2[n+]1[O-])c1ccc(F)cc1 [N → O, H, H, 4-FC6 H4]
- % Survivors vs. Sal. Cholarasuis, PO [1]: 10%
- % Survivors vs. Sal. Cholarasuis, SC [1]: 30%
- MIC [2]: 12.5 µg/mL (≈ 34.5 µM)
- MIC [3]: 25 µg/mL (≈ 69 µM)
- MIC [4]: 3.12 µg/mL (≈ 8.62 µM)
- MIC [5]: 3.12 µg/mL (≈ 8.62 µM)
- MIC [6]: 6.25 µg/mL (≈ 17.2 µM)

SMILES: O=S(=O)(NN=Cc1c[n+]([O-])c2ccccc2[n+]1[O-])c1ccccc1 [N → O, H, H, C6 H5, 1,4-Dioxoquinoxaline-2-carboxaldehyde Benzenesulfonylhydrazone]
- MIC [2]: 25 µg/mL (≈ 72.6 µM)
- MIC [3]: 100 µg/mL (≈ 290 µM)
- MIC [4]: 12.5 µg/mL (≈ 36.3 µM)
- MIC [5]: 12.5 µg/mL (≈ 36.3 µM)
- MIC [6]: 12.5 µg/mL (≈ 36.3 µM)

SMILES: Cc1ccc(S(=O)(=O)NN=Cc2c[n+]([O-])c3ccccc3n2)cc1 [N, H, H, 4-CH3 C6 H4, 4-Oxoquinoxaline-2-carboxaldehyde p-Toluenesulfonylhydrazone]
- % Survivors vs. Sal. Cholarasuis, PO [1]: 60%
- % Survivors vs. Sal. Cholarasuis, SC [1]: 100%
- MIC [2]: 12.5 µg/mL (≈ 36.5 µM)
- MIC [3]: 25 µg/mL (≈ 73 µM)
- MIC [4]: 3.12 µg/mL (≈ 9.13 µM)
- MIC [5]: 3.12 µg/mL (≈ 9.13 µM)
- MIC [6]: 3.12 µg/mL (≈ 9.13 µM)

Source: patent US4100284A, “1,4-Dioxo- and 4-oxoquinoxaline-2-carboxaldehyde sulfonylhydrazones and certain derivatives thereof” (Pfizer Inc., priority 1977, dated 1978)
